“And” between values parts separate entries of the source, which are not always exact repeats. Equal values may be shown once. Read-outs that look alike come from different tables or passages of the source.
Test: 4-h oral plasma pharmacokinetics and tissue distribution, male wild-type and ABC transporter knockout mice
Type: in vivo
Settings: 10 mg/kg oral; for AUC(0-t) / Kp at 4 h / concentration at 4 h / Cmax / Tmax: FVB, mouse; for AUC(0-t) / Cmax / Tmax: plasma; for AUC(0-t): read-out: AUC0–4h; for Fold change Cliver / Fold change SIC (% of dose) / Fold change ratio (SIC (%)-to-plasma) / Fold change ratio (liver-to-plasma) / Fold change ratio (testis-to-plasma) / Fold increase Cbrain / Fold increase Ctestis / Fold change ratio (brain-to-plasma) / Fold increase AUC0–4h: vs wild-type; for Tmax: median (range)
Text: Mice with similar average ages (and body weights) were randomly allocated in experimental groups as far as possible. Mice were maintained in a temperature-controlled and specific pathogen-free environment with a 12-h light and 12-h dark cycle and they received a standard diet (Transbreed, SDS Diets, Technilab-BMI, Someren, The Netherlands) and acidified water ad libitum. […] Given the objective main readout (repotrectinib plasma and tissue concentrations as measured by LC-MS/MS), no blinding method was applied.
Repotrectinib was dissolved in dimethyl sulfoxide (DMSO) at a concentration of 50 mg/mL. This stock solution was first diluted 3-fold with ethanol/polysorbate 80 (1/1; v/v), followed by further dilution with a 10 mM hydrochloric acid solution, yielding a dosing solution of 1 mg/mL, freshly prepared on the day of experiment. Final concentrations of the solvents in the administration solution were: 2%, 2%, 2%, and 94% (all v/v) for DMSO, ethanol, polysorbate 80, and 10 mM hydrochloric acid solution, respectively.
To minimize variation in absorption upon oral administration, mice were fasted for 2–3 h before repotrectinib (10 mg/kg body weight) was administered by gavage into the stomach at 10 µL/g body weight, with a blunt-ended needle. Tail vein serial blood samples were collected at 0.125, 0.25, 0.5, 1, 2 and 4 h using heparinized capillary tubes (Sarstedt, Nümbrecht, Germany) for the 8-h experiments. For the 4- and 2-h experiments, blood samplings were performed from the tail vein with the same schedule, but terminated at 2 and 1 h, respectively. Eight, four, or two hours after oral administration, mice were deeply anesthetized with 2–3% isoflurane, followed by cardiac puncture to collect blood in Eppendorf tubes containing heparin as an anticoagulant. Brain, liver, spleen, kidney, lung, small intestine, and testis were rapidly collected after sacrificing the mice by cervical dislocation. The small intestinal contents (SIC) were separated from small intestinal tissue (SI), which was flushed and rinsed with cold saline to remove any residual feces. Brain, liver, spleen, kidney, lung, SI, SIC, and testis were homogenized with 1, 3, 1, 2, 1, 3, 2, and 1 mL of 2% BSA (w/v), respectively. Plasma fraction was isolated from blood by centrifugation at 9000× g for 6 min at 4 °C. All samples were stored at −30 °C until analysis.
A sensitive and specific liquid chromatography-tandem mass spectrometry method using protein precipitation pre-treatment was adopted to quantify the concentration of repotrectinib in DMEM medium, plasma samples and tissue homogenates.
A non-compartmental model using the PKSolver add-in program for Microsoft Excel was adopted to calculate the pharmacokinetic parameters of repotrectinib. Oral availability was assessed by the plasma area under the curve (AUC), calculated using repotrectinib plasma concentration-time curves with the linear trapezoidal rule without extrapolating the infinity. Statistical testing was performed in Graphpad Prism7 (Graphpad Software, La Jolla, CA, USA). All data are presented as geometric means ± SD. Heteroscedastic data were log-transformed before applying statistical analysis. When differences between two groups were compared, the two-sided unpaired Student’s t test was used. One-way analysis of variance (ANOVA) was applied when multiple groups were compared, and the Bonferroni post hoc correction was used to accommodate multiple testing. Differences were considered statistically significant when P < 0.05.

[1] = male Abcb1a/1b;Abcg2−/− mice, 4 h
[2] = male Abcb1a/1b;Abcg2−/− mice, 4 h, 10 mg/kg
[3] = male Abcb1a/1b−/− mice, 4 h, 10 mg/kg
[4] = male, po, 10 mg/kg, male Abcb1a/1b;Abcg2−/− mice, 4 h
[5] = male, po, 10 mg/kg, male Abcb1a/1b−/− mice, 4 h
[6] = male, po, 10 mg/kg, male Abcg2−/− mice, 4 h
[7] = male, po, 10 mg/kg, male wild-type mice, 4 h

C[C@H]1CNC(=O)c2cnn3ccc(nc23)N[C@H](C)c2cc(F)ccc2O1 [repotrectinib]
Small intestinal content recovery, fold decrease (Abcb1a/1b;Abcg2−/− mice vs wild-type): 13.6 fold | Small intestinal content recovery, fold decrease (Abcb1a/1b−/− mice vs wild-type): 4.9 fold | reduction of liver-to-plasma ratio (Abcg2−/− and Abcb1a/1b;Abcg2−/− mice compared to wild-type mice, 4 h): 30–35% | AUC(0-t) (male Abcg2−/− mice, 4 h): 11900 ± 1420 ng·h/mL | Fold change Cliver [1]: 1.37 | Fold change SIC (% of dose) [1]: 0.07 | Fold change ratio (SIC (%)-to-plasma) [1]: 0.03 | Fold change ratio (liver-to-plasma) [1]: 0.69 | Fold change ratio (testis-to-plasma) [1]: 5.6 | Fold increase Cbrain [1]: 29.1 | Fold increase Ctestis [1]: 10.8 | Fold change ratio (brain-to-plasma) [2]: 14 and 14.2 | Fold increase AUC0–4h [2]: 2.0 | Fold change Cliver (male Abcb1a/1b−/− mice, 4 h): 0.84 | Fold change SIC (% of dose) (male Abcb1a/1b−/− mice, 4 h): 0.20 | Fold change ratio (SIC (%)-to-plasma) (male Abcb1a/1b−/− mice, 4 h): 0.21 | Fold change ratio (liver-to-plasma) (male Abcb1a/1b−/− mice, 4 h): 0.85 | Fold change ratio (testis-to-plasma) (male Abcb1a/1b−/− mice, 4 h): 2.42 | Fold increase AUC0–4h (male Abcb1a/1b−/− mice, 4 h): 1.32 | Fold increase Ctestis (male Abcb1a/1b−/− mice, 4 h): 2.45 | Fold change ratio (brain-to-plasma) [3]: 4.1 and 4.13 | Fold increase Cbrain [3]: 4.1 and 4.14 | Fold change Cliver (male Abcg2−/− mice, 4 h): 1.01 | Fold change SIC (% of dose) (male Abcg2−/− mice, 4 h): 0.87 | Fold change ratio (SIC (%)-to-plasma) (male Abcg2−/− mice, 4 h): 0.54 | Fold change ratio (brain-to-plasma) (male Abcg2−/− mice, 4 h): 0.93 | Fold change ratio (liver-to-plasma) (male Abcg2−/− mice, 4 h): 0.65 | Fold change ratio (testis-to-plasma) (male Abcg2−/− mice, 4 h): 0.71 | Fold increase Cbrain (male Abcg2−/− mice, 4 h): 1.41 | Fold increase Ctestis (male Abcg2−/− mice, 4 h): 1.07 | Fold increase AUC0–4h (male Abcg2−/− mice, 4 h, 10 mg/kg): 1.7 | Fold change Cliver (male wild-type mice, 4 h): 1.00 | Fold change SIC (% of dose) (male wild-type mice, 4 h): 1.00 | Fold change ratio (SIC (%)-to-plasma) (male wild-type mice, 4 h): 1.00 | Fold change ratio (brain-to-plasma) (male wild-type mice, 4 h): 1.00 | Fold change ratio (liver-to-plasma) (male wild-type mice, 4 h): 1.00 | Fold change ratio (testis-to-plasma) (male wild-type mice, 4 h): 1.00 | Fold increase AUC0–4h (male wild-type mice, 4 h): 1.00 | Fold increase Cbrain (male wild-type mice, 4 h): 1.00 | Fold increase Ctestis (male wild-type mice, 4 h): 1.00 | Kp at 4 h (male, brain, po, 10 mg/kg, male Abcb1a/1b;Abcg2−/− mice, 4 h, read-out: Brain-to-plasma ratio): 2.13 ± 0.21 | concentration at 4 h (male, brain, po, 10 mg/kg, male Abcb1a/1b;Abcg2−/− mice, 4 h, read-out: Cbrain): 2760 ± 928 ng/g | Kp at 4 h (male, brain, po, 10 mg/kg, male Abcb1a/1b−/− mice, 4 h, read-out: Brain-to-plasma ratio): 0.62 ± 0.17 | concentration at 4 h (male, brain, po, 10 mg/kg, male Abcb1a/1b−/− mice, 4 h, read-out: Cbrain): 394 ± 102 ng/g | Kp at 4 h (male, brain, po, 10 mg/kg, male Abcg2−/− mice, 4 h, read-out: Brain-to-plasma ratio): 0.14 ± 0.03 | concentration at 4 h (male, brain, po, 10 mg/kg, male Abcg2−/− mice, 4 h, read-out: Cbrain): 134 ± 18 ng/g | Kp at 4 h (male, brain, po, 10 mg/kg, male wild-type mice, 4 h, read-out: Brain-to-plasma ratio): 0.15 ± 0.03 | concentration at 4 h (male, brain, po, 10 mg/kg, male wild-type mice, 4 h, read-out: Cbrain): 95.1 ± 23.5 ng/g | concentration at 4 h (male, liver, po, 10 mg/kg, male Abcb1a/1b;Abcg2−/− mice, 4 h, read-out: Cliver): 9090 ± 2750 ng/g | Kp at 4 h (male, liver, po, 10 mg/kg, male Abcb1a/1b;Abcg2−/− mice, 4 h, read-out: Liver-to-plasma ratio): 7.2 ± 1.2 | concentration at 4 h (male, liver, po, 10 mg/kg, male Abcb1a/1b−/− mice, 4 h, read-out: Cliver): 5580 ± 2030 ng/g | Kp at 4 h (male, liver, po, 10 mg/kg, male Abcb1a/1b−/− mice, 4 h, read-out: Liver-to-plasma ratio): 8.9 ± 2.4 | concentration at 4 h (male, liver, po, 10 mg/kg, male Abcg2−/− mice, 4 h, read-out: Cliver): 6690 ± 1210 ng/g | Kp at 4 h (male, liver, po, 10 mg/kg, male Abcg2−/− mice, 4 h, read-out: Liver-to-plasma ratio): 6.8 ± 0.6 | concentration at 4 h (male, liver, po, 10 mg/kg, male wild-type mice, 4 h, read-out: Cliver): 6630 ± 1160 ng/g | Kp at 4 h (male, liver, po, 10 mg/kg, male wild-type mice, 4 h, read-out: Liver-to-plasma ratio): 10.5 ± 1.9 | Cmax [4]: 5230 ± 1240 ng/mL | AUC(0-t) [4]: 14000 ± 3180 ng·h/mL | Cmax [5]: 3630 ± 620 ng/mL | AUC(0-t) [5]: 9200 ± 1640 ng·h/mL | Cmax [6]: 5080 ± 490 ng/mL | Cmax [7]: 3080 ± 1440 ng/mL | AUC(0-t) [7]: 6990 ± 2460 ng·h/mL | Tmax [4]: 60 min | Tmax [5]: 30 min | Tmax [6]: 15 min | Tmax [7]: 30 min | Kp at 4 h (male, small intestinal content, po, 10 mg/kg, male Abcb1a/1b;Abcg2−/− mice, 4 h, read-out: SIC (%)-to-plasma ratio): 0.0003 ± 9e-05 | Kp at 4 h (male, small intestinal content, po, 10 mg/kg, male Abcb1a/1b−/− mice, 4 h, read-out: SIC (%)-to-plasma ratio): 0.00186 ± 0.00084 | Kp at 4 h (male, small intestinal content, po, 10 mg/kg, male Abcg2−/− mice, 4 h, read-out: SIC (%)-to-plasma ratio): 0.00475 ± 0.00154 | Kp at 4 h (male, small intestinal content, po, 10 mg/kg, male wild-type mice, 4 h, read-out: SIC (%)-to-plasma ratio): 0.00879 ± 0.00241 | concentration at 4 h (male, testis, po, 10 mg/kg, male Abcb1a/1b;Abcg2−/− mice, 4 h, read-out: Ctestis): 1670 ± 386 ng/g | Kp at 4 h (male, testis, po, 10 mg/kg, male Abcb1a/1b;Abcg2−/− mice, 4 h, read-out: Testis-to-plasma ratio): 1.35 ± 0.31 | concentration at 4 h (male, testis, po, 10 mg/kg, male Abcb1a/1b−/− mice, 4 h, read-out: Ctestis): 380 ± 122 ng/g | Kp at 4 h (male, testis, po, 10 mg/kg, male Abcb1a/1b−/− mice, 4 h, read-out: Testis-to-plasma ratio): 0.58 ± 0.14 | concentration at 4 h (male, testis, po, 10 mg/kg, male Abcg2−/− mice, 4 h, read-out: Ctestis): 166 ± 27 ng/g | Kp at 4 h (male, testis, po, 10 mg/kg, male Abcg2−/− mice, 4 h, read-out: Testis-to-plasma ratio): 0.17 ± 0.02 | concentration at 4 h (male, testis, po, 10 mg/kg, male wild-type mice, 4 h, read-out: Ctestis): 155 ± 55 ng/g | Kp at 4 h (male, testis, po, 10 mg/kg, male wild-type mice, 4 h, read-out: Testis-to-plasma ratio): 0.24 ± 0.07 | SIC (% of dose) (small intestinal content, male Abcb1a/1b;Abcg2−/− mice, 4 h, 10 mg/kg): 0.4 % of dose and 0.41 ± 0.23 ^(##) % of dose | SIC (% of dose) (small intestinal content, male Abcb1a/1b−/− mice, 4 h, 10 mg/kg): 1.1 % of dose and 1.13 ± 0.40 % of dose | SIC (% of dose) (small intestinal content, male Abcg2−/− mice, 4 h, 10 mg/kg): 4.8 % of dose and 4.84 ± 2.21 % of dose

From article PMC8619046, “ABCB1 and ABCG2 Control Brain Accumulation and Intestinal Disposition of the Novel ROS1/TRK/ALK Inhibitor Repotrectinib, While OATP1A/1B, ABCG2, and CYP3A Limit Its Oral Availability” (Pharmaceutics, 2021)
